Results: patent US20200172529A1, “Chemical Compound, Pharmaceutical Composition Thereof, and Use and Application Thereof” (Beijing Hanmi Pharm. Co., Ltd., priority 2017, published 2020)

What was measured:
Format in all cases: biochemical
TYK2 kinase = target: T1, TYK2 kinase (Homo sapiens, UniProt P29597); assay: Inhibition assay of TYK2 kinase activity (ADP-Glo Kinase Assay)
T1 construct: purchased Life Technologies PR8440C
Procedure: Determination of inhibition of TYK2 kinase activity by the examples compounds disclosed herein
Inhibition assay of TYK2 kinase activity: the method of ADP-Glo™ Kinase Assay (Promega, V9102) was used to determine the inhibitory activity of the test compounds against TYK2 kinase.
TYK2 kinase (purchased from Life Technologies, article number: PR8440C) was diluted to the 2-fold final concentration (0.8 ng/mL) using reaction buffer (40 mM Tris-HCl, pH 7.5; 20 mM MgCl2; 0.1 mg/mL BSA; 1 mM DTT), and added to a 384-well plate at 5 μL/well. The test drugs were subjected to a 10-fold gradient dilution, from 10 μM, to obtain 6 concentrations, and added to experimental wells of the 384-well plate at 2.5 μL/well. 5 μL of water and 2.5 μL of buffer were added to negative control wells. 5 μL of TYK2 and 2.5 μL of water were added to positive control wells. After incubating for 10 minutes at room temperature, the substrate ATP and polyE4Y1 (Sigma, P0275) were added at 2.5 μL/well, mixed well, and then reacted at room temperature for 60 minutes. After the reaction was completed, the kinase activity was detected according to the instruction of the kit. First, the ADP-Glo reaction reagent was added at 10 μL/well, mixed well, and reacted at room temperature for 40 minutes. The kinase detection reagent was then added at 20 μL/well, mixed well, and then reacted at room temperature for 30 minutes. The detection was then performed and the IC50s of test drugs were calculated.

JAK1 kinase = JAK1 kinase (Homo sapiens, UniProt P23458); assay: Inhibition assay of JAK1 kinase activity (ADP-Glo Kinase Assay)
Excerpt: Inhibition assay of JAK1 kinase activity: the method in ADP-Glo™ Kinase Assay (Promega, V9102) was used to determine the inhibitory activity of the test compounds against JAK1 kinase.

JAK2 kinase = JAK2 kinase (Homo sapiens, UniProt O60674); assay: Inhibition assay of JAK2 kinase activity (ADP-Glo Kinase Assay)
Excerpt: Inhibition assay of JAK2 kinase activity: the method in ADP-Glo™ Kinase Assay (Promega, V9102) was used to determine the inhibitory activity of the test compounds against JAK2 kinase.

JAK3 kinase = target: T2, JAK3 kinase (Homo sapiens, UniProt P52333); assay: Inhibition assay of JAK3 kinase activity (ADP-Glo Kinase Assay)
T2 sequence (P52333 1-1124): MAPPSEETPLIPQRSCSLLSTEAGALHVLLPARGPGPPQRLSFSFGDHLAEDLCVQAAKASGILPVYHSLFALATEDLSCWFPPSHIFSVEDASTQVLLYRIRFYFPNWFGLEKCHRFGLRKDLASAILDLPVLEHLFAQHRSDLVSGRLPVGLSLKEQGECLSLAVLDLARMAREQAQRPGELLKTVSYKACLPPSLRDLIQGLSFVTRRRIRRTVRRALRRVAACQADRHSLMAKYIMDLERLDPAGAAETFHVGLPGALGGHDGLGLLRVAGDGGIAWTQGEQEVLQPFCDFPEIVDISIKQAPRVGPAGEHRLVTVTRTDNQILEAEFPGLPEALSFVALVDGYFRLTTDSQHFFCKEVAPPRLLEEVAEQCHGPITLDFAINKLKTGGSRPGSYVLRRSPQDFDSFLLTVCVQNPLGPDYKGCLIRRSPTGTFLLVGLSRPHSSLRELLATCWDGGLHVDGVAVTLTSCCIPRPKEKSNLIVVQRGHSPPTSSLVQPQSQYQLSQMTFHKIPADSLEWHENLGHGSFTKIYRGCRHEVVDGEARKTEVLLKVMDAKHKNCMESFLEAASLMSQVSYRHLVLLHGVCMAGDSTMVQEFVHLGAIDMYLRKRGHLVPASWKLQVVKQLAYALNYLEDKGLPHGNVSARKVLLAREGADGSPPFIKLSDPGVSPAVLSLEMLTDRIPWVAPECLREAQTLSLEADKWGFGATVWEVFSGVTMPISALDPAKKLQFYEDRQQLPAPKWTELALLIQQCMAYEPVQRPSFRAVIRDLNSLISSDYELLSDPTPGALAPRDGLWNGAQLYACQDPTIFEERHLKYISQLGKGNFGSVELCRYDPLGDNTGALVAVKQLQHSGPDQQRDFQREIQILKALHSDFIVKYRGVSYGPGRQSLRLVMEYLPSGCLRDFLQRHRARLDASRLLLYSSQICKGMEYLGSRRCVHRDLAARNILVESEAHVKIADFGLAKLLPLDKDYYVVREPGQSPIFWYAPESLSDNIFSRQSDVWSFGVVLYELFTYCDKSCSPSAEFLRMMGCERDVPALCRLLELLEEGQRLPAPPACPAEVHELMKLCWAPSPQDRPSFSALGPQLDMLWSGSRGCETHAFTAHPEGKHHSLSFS
Excerpt: Inhibition assay of JAK3 kinase activity: the method in ADP-Glo™ Kinase Assay (Promega, V9102) was used to determine the inhibitory activity of the test compounds against JAK3 kinase.

Chain of JAK2 kinase (O60674 whole entry): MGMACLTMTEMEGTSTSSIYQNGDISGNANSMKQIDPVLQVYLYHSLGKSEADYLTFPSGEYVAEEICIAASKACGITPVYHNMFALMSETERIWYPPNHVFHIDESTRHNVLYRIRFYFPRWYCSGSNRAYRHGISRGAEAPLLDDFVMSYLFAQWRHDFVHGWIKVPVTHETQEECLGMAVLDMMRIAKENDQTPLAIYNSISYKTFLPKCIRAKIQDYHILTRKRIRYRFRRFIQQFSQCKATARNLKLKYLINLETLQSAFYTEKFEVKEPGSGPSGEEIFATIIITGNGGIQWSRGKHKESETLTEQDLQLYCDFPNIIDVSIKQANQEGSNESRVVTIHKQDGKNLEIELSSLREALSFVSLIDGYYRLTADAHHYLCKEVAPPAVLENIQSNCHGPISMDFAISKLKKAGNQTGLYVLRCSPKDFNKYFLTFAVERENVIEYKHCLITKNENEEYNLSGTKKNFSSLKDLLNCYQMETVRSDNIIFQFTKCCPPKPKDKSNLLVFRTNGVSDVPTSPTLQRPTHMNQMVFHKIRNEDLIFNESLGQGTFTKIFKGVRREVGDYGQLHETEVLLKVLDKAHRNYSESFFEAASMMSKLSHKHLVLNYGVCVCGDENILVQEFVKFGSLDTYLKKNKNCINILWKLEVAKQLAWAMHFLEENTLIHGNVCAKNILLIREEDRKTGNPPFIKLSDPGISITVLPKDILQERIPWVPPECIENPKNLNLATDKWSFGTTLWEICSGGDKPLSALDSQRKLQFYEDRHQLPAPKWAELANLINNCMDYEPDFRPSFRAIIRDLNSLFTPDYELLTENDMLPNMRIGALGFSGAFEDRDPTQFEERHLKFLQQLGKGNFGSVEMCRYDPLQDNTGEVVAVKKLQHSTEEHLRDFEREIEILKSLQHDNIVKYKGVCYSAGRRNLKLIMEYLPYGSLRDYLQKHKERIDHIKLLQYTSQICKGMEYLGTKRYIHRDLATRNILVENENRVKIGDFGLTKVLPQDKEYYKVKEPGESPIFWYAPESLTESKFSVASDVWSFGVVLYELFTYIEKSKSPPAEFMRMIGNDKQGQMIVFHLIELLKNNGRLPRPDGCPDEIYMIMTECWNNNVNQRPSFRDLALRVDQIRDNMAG
T1 sequence (P29597 whole entry): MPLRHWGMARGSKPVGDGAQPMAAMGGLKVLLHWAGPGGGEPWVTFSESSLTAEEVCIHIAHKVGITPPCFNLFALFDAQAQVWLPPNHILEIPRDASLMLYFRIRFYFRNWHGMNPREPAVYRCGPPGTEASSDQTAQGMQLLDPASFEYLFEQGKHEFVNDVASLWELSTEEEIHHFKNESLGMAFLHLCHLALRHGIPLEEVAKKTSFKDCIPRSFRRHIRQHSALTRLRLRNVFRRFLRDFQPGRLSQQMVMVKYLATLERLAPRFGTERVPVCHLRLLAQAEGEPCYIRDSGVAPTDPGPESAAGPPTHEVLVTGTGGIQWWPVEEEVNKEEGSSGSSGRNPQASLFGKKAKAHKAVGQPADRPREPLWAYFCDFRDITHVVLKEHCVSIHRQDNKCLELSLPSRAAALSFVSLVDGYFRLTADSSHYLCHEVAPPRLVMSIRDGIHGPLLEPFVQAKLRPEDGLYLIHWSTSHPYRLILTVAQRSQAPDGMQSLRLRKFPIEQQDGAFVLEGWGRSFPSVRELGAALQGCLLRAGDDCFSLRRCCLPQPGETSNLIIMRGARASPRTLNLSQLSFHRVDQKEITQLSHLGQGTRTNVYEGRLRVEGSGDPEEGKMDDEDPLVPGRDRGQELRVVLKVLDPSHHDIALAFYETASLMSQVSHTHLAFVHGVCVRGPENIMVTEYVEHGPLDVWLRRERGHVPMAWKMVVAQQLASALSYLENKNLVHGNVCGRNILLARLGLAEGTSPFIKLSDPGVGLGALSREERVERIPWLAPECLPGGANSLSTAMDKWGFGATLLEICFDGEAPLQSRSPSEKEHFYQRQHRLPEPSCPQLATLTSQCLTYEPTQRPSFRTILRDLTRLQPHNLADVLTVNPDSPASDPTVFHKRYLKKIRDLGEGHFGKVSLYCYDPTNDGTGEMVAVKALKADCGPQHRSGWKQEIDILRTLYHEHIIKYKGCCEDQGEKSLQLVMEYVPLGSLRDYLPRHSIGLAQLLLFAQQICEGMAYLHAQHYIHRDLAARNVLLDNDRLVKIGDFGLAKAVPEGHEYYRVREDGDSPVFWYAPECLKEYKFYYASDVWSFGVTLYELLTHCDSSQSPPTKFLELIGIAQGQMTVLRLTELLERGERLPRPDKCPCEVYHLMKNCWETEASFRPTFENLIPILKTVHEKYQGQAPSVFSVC
Chain of JAK1 kinase (P23458 whole entry): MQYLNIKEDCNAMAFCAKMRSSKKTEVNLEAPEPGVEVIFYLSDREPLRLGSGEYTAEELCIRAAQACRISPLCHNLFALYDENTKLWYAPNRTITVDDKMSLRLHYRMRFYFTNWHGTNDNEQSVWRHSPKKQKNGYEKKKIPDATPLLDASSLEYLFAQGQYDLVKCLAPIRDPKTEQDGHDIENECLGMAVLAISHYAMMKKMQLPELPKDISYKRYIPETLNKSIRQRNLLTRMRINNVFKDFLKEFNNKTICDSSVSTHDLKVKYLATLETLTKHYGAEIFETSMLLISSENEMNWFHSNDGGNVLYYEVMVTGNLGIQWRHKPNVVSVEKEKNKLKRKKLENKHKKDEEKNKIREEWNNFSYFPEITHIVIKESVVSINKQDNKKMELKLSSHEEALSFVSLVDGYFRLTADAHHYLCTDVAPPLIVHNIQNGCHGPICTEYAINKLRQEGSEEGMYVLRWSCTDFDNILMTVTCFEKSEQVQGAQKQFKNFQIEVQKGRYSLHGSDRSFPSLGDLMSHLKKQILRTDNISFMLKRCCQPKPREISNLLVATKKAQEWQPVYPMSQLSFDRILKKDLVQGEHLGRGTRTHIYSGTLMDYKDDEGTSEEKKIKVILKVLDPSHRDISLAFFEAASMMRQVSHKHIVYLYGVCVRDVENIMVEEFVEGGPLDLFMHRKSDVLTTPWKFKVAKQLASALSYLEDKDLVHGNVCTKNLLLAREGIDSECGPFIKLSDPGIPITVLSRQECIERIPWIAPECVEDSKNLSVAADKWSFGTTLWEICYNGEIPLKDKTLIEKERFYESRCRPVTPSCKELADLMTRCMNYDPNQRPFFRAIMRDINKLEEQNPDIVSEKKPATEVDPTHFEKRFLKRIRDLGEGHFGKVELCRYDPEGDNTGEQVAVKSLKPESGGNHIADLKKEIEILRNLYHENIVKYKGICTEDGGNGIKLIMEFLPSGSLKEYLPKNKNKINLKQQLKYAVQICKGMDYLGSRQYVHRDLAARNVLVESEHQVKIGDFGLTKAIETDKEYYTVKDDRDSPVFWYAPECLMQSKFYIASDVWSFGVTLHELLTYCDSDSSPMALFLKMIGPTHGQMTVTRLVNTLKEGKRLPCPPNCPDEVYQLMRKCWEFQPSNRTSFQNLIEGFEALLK

Structure (SMILES) | IC50 (TYK2 kinase) | IC50 (JAK1 kinase) | IC50 (JAK2 kinase) | IC50 (JAK3 kinase)
NC(=O)c1cnc(Nc2ccc3c(c2)NCC(O)CO3)nc1NC1CC1 (stereo not drawn) [Example 2, 4-(cyclopropylamino)-2-((3-hydroxy-2,3,4,5-tetrahydro-benzo[b][1,4]oxazepin-7-yl)amino)pyrimidin-5-carboxamide] | < 10 nM | < 10 nM | 10 to 100 nM | < 10 nM
NC(=O)c1cnc(Nc2ccc3c(c2)NC[C@H](O)CO3)nc1Nc1ccc2[nH]ccc2c1 [Example 34, 4-((1H-indol-5-yl)amino)-2-(((S)-2,3,4,5-tetrahydro-3-hydroxybenzo[b][1,4]oxazepin-7-yl)amino)pyrimidin-5-carboxamide] | < 10 nM | < 10 nM | < 10 nM | < 10 nM
NC(=O)c1cnc(Nc2ccc3c(c2)NC[C@H](O)CO3)nc1NC1C2CC3CC1CC(O)(C3)C2 (stereo partly drawn) [Example 38, 4-((1-hydroxyadamantan-4-yl)amino)-2-(((S)-2,3,4,5-tetrahydro-3-hydroxybenzo[b][1,4]oxazepin-7-yl)amino)pyrimidin-5-carboxamide] | < 10 nM | < 10 nM | < 10 nM | < 10 nM
COC12CC3CC(C1)C(Nc1nc(Nc4ccc5c(c4)NC[C@H](O)CO5)ncc1C(N)=O)C(C3)C2 (stereo partly drawn) [Example 46, 4-((5-methoxyadamantan-2-yl)amino)-2-(((S)-2,3,4,5-tetrahydro-3-hydroxybenzo[b][1,4]oxazepin-7-yl)amino)pyrimidin-5-carboxamide] | < 10 nM | < 10 nM | < 10 nM | < 10 nM
NC(=O)c1cnc(Nc2ccc3c(c2)NC[C@H](O)CO3)nc1NCC1CCCCC1 [Example 50, 4-((cyclohexylmethyl)amino)-2-(((S)-2,3,4,5-tetrahydro-3-hydroxybenzo[b][1,4]oxazepin-7-yl)amino)pyrimidin-5-carboxamide] | < 10 nM | 10 to 100 nM | < 10 nM | < 10 nM
NC(=O)c1cnc(Nc2ccc3c(c2)NC[C@H](O)CO3)nc1NCCCO [Example 51, 4-((3-hydroxypropyl)amino)-2-(((S)-2,3,4,5-tetrahydro-3-hydroxybenzo[b][1,4]oxazepin-7-yl)amino)pyrimidin-5-carboxamide] | < 10 nM | 10 to 100 nM | 10 to 100 nM | 10 to 100 nM
CC(C)(C)Nc1nc(Nc2ccc3c(c2)NC[C@H](O)CO3)ncc1C(N)=O [Example 53, 4-(tert-butylamino)-2-(((S)-2,3,4,5-tetrahydro-3-hydroxybenzo[b][1,4]oxazepin-7-yl)amino)pyrimidin-5-carboxamide] | < 10 nM | 10 to 100 nM | 10 to 100 nM | 10 to 100 nM
NC(=O)c1cnc(Nc2ccc3c(c2)NC[C@H](O)CO3)nc1NC1CC(F)(F)C1 [Example 54, 4-((3,3-difluorocyclobutyl)amino)-2-(((S)-2,3,4,5-tetrahydro-3-hydroxybenzo[b][1,4]oxazepin-7-yl)amino)pyrimidin-5-carboxamide] | < 10 nM | 10 to 100 nM | 10 to 100 nM | 10 to 100 nM
CC(Nc1nc(Nc2ccc3c(c2)NC[C@H](O)CO3)ncc1C(N)=O)C1CC1 (stereo partly drawn) [Example 55, 4-((1-cyclopropylethyl)amino)-2-(((S)-2,3,4,5-tetrahydro-3-hydroxybenzo[b][1,4]oxazepin-7-yl)amino)pyrimidin-5-carboxamide] | < 10 nM | < 10 nM | < 10 nM | < 10 nM
NC(=O)c1cnc(Nc2ccc3c(c2)NC[C@H](O)CO3)nc1NCC1CCC1 [Example 56, 4-((cyclobutylmethyl)amino)-2-(((S)-2,3,4,5-tetrahydro-3-hydroxybenzo[b][1,4]oxazepin-7-yl)amino)pyrimidin-5-carboxamide] | < 10 nM | < 10 nM | < 10 nM | < 10 nM
NC(=O)c1cnc(Nc2ccc3c(c2)NC[C@H](O)CO3)nc1NCCN1CCOCC1 [Example 61, 4-((2-morpholinoethyl)amino)-2-(((S)-2,3,4,5-tetrahydro-3-hydroxybenzo[b][1,4]oxazepin-7-yl)amino)pyrimidin-5-carboxamide] | < 10 nM | 10 to 100 nM | 10 to 100 nM | 10 to 100 nM
NC(=O)c1cnc(Nc2ccc3c(c2)NC[C@H](O)CO3)nc1NC1CCOC1 (stereo partly drawn) [Example 64, 4-(tetrahydrofuran-3-ylamino)-2-(((S)-2,3,4,5-tetrahydro-3-hydroxybenzo[b][1,4]oxazepin-7-yl)amino)pyrimidin-5-carboxamide] | < 10 nM | 10 to 100 nM | 10 to 100 nM | 10 to 100 nM
C#CCNc1nc(Nc2ccc3c(c2)NC[C@H](O)CO3)ncc1C(N)=O [Example 65, 4-(prop-2-yn-1-ylamino)-2-(((S)-2,3,4,5-tetrahydro-3-hydroxybenzo[b][1,4]oxazepin-7-yl)amino)pyrimidin-5-carboxamide] | < 10 nM | < 10 nM | 10 to 100 nM | 10 to 100 nM
CS(=O)(=O)CCNc1nc(Nc2ccc3c(c2)NC[C@H](O)CO3)ncc1C(N)=O [Example 67, 4-((2-methanesulfonylethyl)amino)-2-(((S)-2,3,4,5-tetrahydro-3-hydroxybenzo[b][1,4]oxazepin-7-yl)amino)pyrimidin-5-carboxamide] | < 10 nM | 10 to 100 nM | 10 to 100 nM | 10 to 100 nM
CC(C)CNc1nc(Nc2ccc3c(c2)NC[C@H](O)CO3)ncc1C(N)=O [Example 70, 4-(isobutylamino)-2-(((S)-2,3,4,5-tetrahydro-3-hydroxybenzo[b][1,4]oxazepin-7-yl)amino)pyrimidin-5-carboxamide] | < 10 nM | < 10 nM | < 10 nM | < 10 nM
NC(=O)c1cnc(Nc2ccc3c(c2)NC[C@H](O)CO3)nc1NCC1CCCC1 [Example 73, 4-((cyclopentylmethyl)amino)-2-(((S)-2,3,4,5-tetrahydro-3-hydroxybenzo[b][1,4]oxazepin-7-yl)amino)pyrimidin-5-carboxamide] | < 10 nM | < 10 nM | < 10 nM | < 10 nM
NC(=O)c1cnc(Nc2ccc3c(c2)NCCCO3)nc1NC1CC1 [Example 77, 4-(cyclopropylamino)-2-((2,3,4,5-tetrahydrobenzo[b][1,4]oxazepin-7-yl)amino)pyrimidin-5-carboxamide] | < 10 nM | – | – | 10 to 100 nM
CCCCO[C@H]1CNc2cc(Nc3ncc(C(N)=O)c(NC4CC4)n3)ccc2OC1 [Example 81, 4-(cyclopropylamino)-2-(((S)-2,3,4,5-tetrahydro-3-butoxybenzo[b][1,4]oxazepin-7-yl)amino)pyrimidin-5-carboxamide] | < 10 nM | 10 to 100 nM | – | 10 to 100 nM
